Measurements taken from publication PMC12467068, “Design, Synthesis, and Computational Insights into PKMYT1 Inhibitors for the Treatment of Breast Cancer” (Biomedicines, 2025).

Experiments:
PKMYT1 = biological target: T1, PKMYT1 (Homo sapiens, UniProt Q99640); assay: PKMYT1 enzyme inhibition assay (LanthaScreen Eu kinase binding method); conditions: mean of two separate experiments
T1 sequence (Q99640 1-499): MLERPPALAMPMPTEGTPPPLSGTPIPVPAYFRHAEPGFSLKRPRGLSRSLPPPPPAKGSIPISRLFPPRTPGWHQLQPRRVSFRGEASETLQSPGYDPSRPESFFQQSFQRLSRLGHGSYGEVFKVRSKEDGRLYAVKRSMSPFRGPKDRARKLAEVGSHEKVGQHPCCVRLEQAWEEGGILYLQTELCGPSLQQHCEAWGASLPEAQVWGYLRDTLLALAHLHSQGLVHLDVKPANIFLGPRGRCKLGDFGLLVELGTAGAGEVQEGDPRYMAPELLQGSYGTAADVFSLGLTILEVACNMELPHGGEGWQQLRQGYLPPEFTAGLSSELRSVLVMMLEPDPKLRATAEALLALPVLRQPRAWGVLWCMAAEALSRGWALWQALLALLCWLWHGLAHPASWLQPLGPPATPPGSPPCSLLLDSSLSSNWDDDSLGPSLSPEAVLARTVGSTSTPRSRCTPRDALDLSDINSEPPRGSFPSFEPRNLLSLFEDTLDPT
Procedure: The PKMYT1 kinase assay was conducted with the LanthaScreen™ Eu kinase binding method, as provided by Thermo Fisher Scientific (Waltham, MA, USA). Initially, compounds were prepared at a concentration of 4 mM in DMSO and subsequently diluted to various concentrations in 1X buffer. […] The plate was then incubated in the dark at 25 °C for 1 h, and fluorescence signals were recorded at 665 nm and 615 nm.

HCC1569 cells = assay: Cell proliferation assay (CCK-8), HCC1569; assay type: cell-based; conditions: for IC50: Homo sapiens, HCC1569, 120 h, CCNE1-amplified breast cancer cells, 5-day incubation, mean ± SD, n = 3
Procedure: (§1) HCC1569 and OVCAR3 cells (2 × 10^3/well) were seeded in 96-well plates and cultured for 24 h at 37 °C, 5% CO2. Compounds at varying concentrations were added, followed by 5-day incubation. Cell viability was assessed using Cell Counting Kit-8 (CCK-8) with absorbance measurement at 450 nm. HCC1569 (BNCC341698) was purchased from BNCC and OVCAR3 (CL-0178) was purchased from Procell.

OVCAR3 cells = assay: Cell proliferation assay (CCK-8), OVCAR3; assay type: cell-based; conditions: for IC50: Homo sapiens, OVCAR-3, 120 h, CCNE1-amplified ovarian cancer cells, 5-day incubation, mean ± SD, n = 3
Procedure: as §1

A549 cells = assay: Anti-proliferative activity in low-expressing CCNE1 cells A549; assay type: cell-based; conditions: Homo sapiens, A549; lung cancer cells, low CCNE1 expression; mean ± SD, n = 3
BEAS-2B cells = assay: Anti-proliferative activity in normal lung epithelial cells BEAS-2B; assay type: cell-based; conditions: Homo sapiens, BEAS-2B; lung epithelial cells; mean ± SD, n = 3

Structure (SMILES) | IC50 (PKMYT1) [nM] | IC50 (HCC1569 cells) [nM] | IC50 (OVCAR3 cells) [nM] | further results
Cc1ccc(O)c(C)c1NC(=O)c1cnc(Nc2ccc3ncsc3c2)nc1N [MY-19, 4-amino-2-(benzo[d]thiazol-6-ylamino)-N-(3-hydroxy-2,6-dimethylphenyl)pyrimidine-5-carboxamide] | 3.5 | 3140 ± 280 | 1250 ± 60 | 
Cc1ccc(O)c(C)c1NC(=O)c1cnc(Nc2ccc(Cl)cc2)nc1N [MY-4, 4-amino-2-((4-chlorophenyl)amino)-N-(3-hydroxy-2,6-dimethylphenyl)] | 16 |  |  | 
Cc1ccc(O)c(C)c1NC(=O)c1cnc(Nc2ccccc2Cl)nc1N [MY-2, 4-amino-2-((2-chlorophenyl)amino)-N-(3-hydroxy-2,6-dimethylphenyl)pyrimidine-5-carboxamide] | 150 |  |  | 
Cc1ccc(O)c(C)c1NC(=O)c1cnc(Nc2ccc(P(C)(C)=O)cc2)nc1N [MY-13, 4-amino-2-((4-(dimethylphosphoryl)phenyl)amino)-N-(3-hydroxy-2,6-dimethylphenyl)pyrimidine-5-carboxamide] | 7.9 | > 8000 | > 8000 | anti-proliferative activity (in words) (HCC1569 cells; HCC1569): complete loss of activity; anti-proliferative activity (in words) (OVCAR3 cells; OVCAR3): complete loss of activity
Cc1ccc(O)c(C)c1NC(=O)c1cnc(Nc2ccc(C(C)C)cc2)nc1N [MY-8, 4-amino-2-((4-isopropylphenyl)amino)-N-(3-hydroxy-2,6-dimethylphenyl)pyrimidine-5-carboxamide] | 46 |  |  | 
Cc1ccc(O)c(C)c1NC(=O)c1cnc(Nc2ccc(N3CCN(C)CC3)cc2)nc1N [MY-11, 4-amino-2-((4-(4-methylpiperazin-1-yl)phenyl)amino)-N-(3-hydroxy-2,6-dimethylphenyl)pyrimidine-5-carboxamide] | 7.1 | 3560 ± 590 | 2120 ± 330 | 
Cc1ccc(O)c(C)c1NC(=O)c1cnc(Nc2ccc3scnc3c2)nc1N [MY-20, 4-amino-2-(benzo[d]thiazol-5-ylamino)-N-(3-hydroxy-2,6-dimethylphenyl)pyrimidine-5-carboxamide] | 5.7 | 3540 ± 210 | 600 ± 90 | 
Cc1ccc(O)c(C)c1NC(=O)c1cnc(Nc2ccc(-c3ccccc3)cc2)nc1N [MY-9, 4-amino-2-([1,1′-biphenyl]-4-ylamino)-N-(3-hydroxy-2,6-dimethylphenyl)pyrimidine-5-carboxamide] | 32 |  |  | 
Cc1ccc(O)c(C)c1NC(=O)c1cnc(Nc2ccc3c(c2)CN(C)C3=O)nc1N [MY-17, 4-amino-2-((2-methyl-1-oxoisoindolin-5-yl)amino)-N-(3-hydroxy-2,6-dimethylphenyl)pyrimidine-5-carboxamide] | 3.3 | > 8000 | 980 ± 70 | 
Cc1ccc(O)c(C)c1NC(=O)c1cnc(Nc2ccc(N3CCOCC3)cc2)nc1N [MY-10, 4-amino-2-((4-morpholinophenyl)amino)-N-(3-hydroxy-2,6-dimethylphenyl)pyrimidine-5-carboxamide] | 8.6 | 2950 ± 320 | 810 ± 60 | 
Cc1ccc(O)c(C)c1NC(=O)c1cnc(Nc2ccccc2)nc1 [Compound M1] | 220 |  |  | 
Cc1ccc(O)c(C)c1NC(=O)c1cnc(Nc2ccc3occc3c2)nc1N [MY-21, 4-amino-2-(benzofuran-5-ylamino)-N-(3-hydroxy-2,6-dimethylphenyl)pyrimidine-5-carboxamide] | 12 |  |  | 
Cc1cc2c(C(N)=O)c(N)n(-c3c(C)ccc(O)c3C)c2nc1C [RP-6306, reference compound] |  | 110 ± 20 | 90 ± 10 | IC50 (A549 cells): 1450 ± 230 nM; IC50 (BEAS-2B cells): 2600 ± 540 nM
Cc1ccc(O)c(C)c1NC(=O)c1cnc(Nc2ccccc2)nc1N [MY-1, 4-amino-2-(phenylamino)-N-(3-hydroxy-2,6-dimethylphenyl)pyrimidine-5-carboxamide] | 26 |  |  | 
Cc1ccc(O)c(C)c1NC(=O)c1cnc(Nc2ccc(Br)cc2)nc1N [MY-6, 4-amino-2-((4-bromophenyl)amino)-N-(3-hydroxy-2,6-dimethylphenyl)pyrimidine-5-carboxamide] | 36 |  |  | 
Cc1ccc(O)c(C)c1NC(=O)c1cnc(Nc2ccc(F)cc2)nc1N [MY-5, 4-amino-2-((4-fluorophenyl)amino)-N-(3-hydroxy-2,6-dimethylphenyl)pyrimidine-5-carboxamide] | 20 |  |  | 
Cc1ccc(O)c(C)c1NC(=O)c1cnc(Nc2ccc(C(=O)N3CCOCC3)cc2)nc1N [MY-16, 4-amino-2-((4-(morpholine-4-carbonyl)phenyl)amino)-N-(3-hydroxy-2,6-dimethylphenyl)pyrimidine-5-carboxamide] | 6.1 | > 8000 | 1190 ± 90 | 
Cc1ccc(O)c(C)c1NC(=O)c1cnc(Nc2cccc(Cl)c2)nc1N [MY-3, 4-amino-2-((3-chlorophenyl)amino)-N-(3-hydroxy-2,6-dimethylphenyl)pyrimidine-5-carboxamide] | 17 |  |  | 
Cc1ccc(O)c(C)c1NC(=O)c1cnc(Nc2ccc3ccoc3c2)nc1N [MY-18, 4-amino-2-(benzofuran-6-ylamino)-N-(3-hydroxy-2,6-dimethylphenyl)pyrimidine-5-carboxamide] | 8.5 | 6970 ± 1090 | 3310 ± 180 | 
Cc1ccc(Nc2ncc(C(=O)Nc3c(C)ccc(O)c3C)c(N)n2)cc1 [MY-7, 4-amino-2-(p-tolylamino)-N-(3-hydroxy-2,6-dimethylphenyl)pyrimidine-5-carboxamide] | 28 |  |  | 
Cc1ccc(O)c(C)c1NC(=O)c1cnc(Nc2ccc(C(=O)N(C)C)cc2)nc1N [MY-15, 4-amino-2-((4-(dimethylcarbamoyl)phenyl)amino)-N-(3-hydroxy-2,6-dimethylphenyl)pyrimidine-5-carboxamide] | 15 |  |  | 
Cc1ccc(O)c(C)c1NC(=O)c1cnc(Nc2ccc([N+](=O)[O-])cc2)nc1N [MY-12, 4-amino-2-((4-nitrophenyl)amino)-N-(3-hydroxy-2,6-dimethylphenyl)pyrimidine-5-carboxamide] | 5.1 | 6350 ± 310 | 740 ± 110 | 
